Test: Forced degradation of the phenylalkyl carbamate as a function of pH (pH 9 carbonate buffer, LC-MS)
Type: physicochemical
Conditions: room temperature
Protocol: Under certain conditions of elevated temperature and relative humidity, such as, 25° C. and 40% RH, 25° C. and 60% RH, 25° C. and 80% RH, 45° C. and 20% RH, 45° C. and 40% RH, 45° C. and 60% RH, 45° C. and 80% RH, or 40° C. and75% RH and the like, an exposed compound or composition may be subject to degradation.
As shown in Scheme A, a sample of Compound A1, the carbamic acid (2R)-2-(2-chloro-phenyl)-2-hydroxy-ethyl ester compound of formula (Ib), was dissolved in a pH 9 carbonate buffer.
The sample was analyzed by LC-MS under reverse phase conditions using positive ion ESI and APCI detection.

With `NC(=O)OC[C@H](O)c1ccccc1Cl` [Compound A1, carbamic acid (2R)-2-(2-chloro-phenyl)-2-hydroxy-ethyl ester] the Degradation in solution was “degradation products had formed in appreciable amounts”.

From patent US20080090903A1, “PHENYLALKYL CARBAMATE COMPOSITIONS” (priority 2006, published 2008)
